Measured values from PubChem BioAssay AID248 (DTP/NCI, 2004).
Several values for one entry are separate records, joined by “and”; a condition that tells them apart may be missing. Identical values can stand only once. Toxic doses and inconclusive results are not listed.

System: L1210 leukemia ip in BDF1 mice, survival T/C
Experiment: NCI In Vivo Anticancer Drug Screen. Data for tumor model L1210 Leukemia (intraperitoneal) in B6D2F1 (BDF1) mice
Details: endpoint: mean survival time, higher = longer survival
Outline: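 Each compound was tested against a transplantable tumor grown in mice. The endpoint was survival, with treated animals benchmarked against vehicle controls as a simple ratio.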

[1] = dose: 25.0 mg/kg/injection, schedule: Q01DX009 (ip), vehicle: saline with Tween-80
[2] = dose: 50.0 mg/kg/injection, schedule: Q01DX009 (ip), vehicle: saline with Tween-80
[3] = dose: 100.0 mg/kg/injection, schedule: Q01DX009 (ip), vehicle: saline with Tween-80
[4] = dose: 100.0 mg/kg/injection, schedule: Q04DX003 (ip), vehicle: saline with Tween-80
[5] = dose: 200.0 mg/kg/injection, schedule: Q01DX009 (ip), vehicle: saline with Tween-80
[6] = dose: 200.0 mg/kg/injection, schedule: Q04DX003 (ip), vehicle: saline with Tween-80
[7] = dose: 400.0 mg/kg/injection, schedule: Q04DX003 (ip), vehicle: saline with Tween-80
[8] = dose: 400.0 mg/kg/injection, schedule: Q01DX009 (ip), vehicle: saline with Tween-80
[9] = dose: 100.0 mg/kg/injection, schedule: Q01DX009 (ip), vehicle: Klucel (hydroxypropylcellulose) (HPC)
[10] = dose: 200.0 mg/kg/injection, schedule: Q01DX009 (ip), vehicle: Klucel (hydroxypropylcellulose) (HPC)
[11] = dose: 100.0 mg/kg/injection, schedule: Q01DX001 (ip), vehicle: saline
[12] = dose: 200.0 mg/kg/injection, schedule: Q01DX001 (ip), vehicle: saline
[13] = dose: 400.0 mg/kg/injection, schedule: Q01DX001 (ip), vehicle: saline

N#[N+]c1c(C(=O)O)[nH]c(=O)[nH]c1=O
T/C (dose: 6.25 mg/kg/injection, schedule: Q01DX009 (ip), vehicle: saline): 99 % of control | T/C (dose: 10.0 mg/kg/injection, schedule: Q01DX001 (ip), vehicle: carboxymethylcellulose (CMC)): 92 % of control | T/C (dose: 12.5 mg/kg/injection, schedule: Q01DX009 (ip), vehicle: saline with Tween-80): 98 % of control | T/C (dose: 12.5 mg/kg/injection, schedule: Q01DX009 (ip), vehicle: saline): 96 % of control | T/C (dose: 12.5 mg/kg/injection, schedule: Q01DX Z (ip), vehicle: methylcellulose (MC)): 94 % of control | T/C (dose: 20.0 mg/kg/injection, schedule: Q01DX001 (ip), vehicle: carboxymethylcellulose (CMC)): 95 % of control | T/C (dose: 20.0 mg/kg/injection, schedule: Q01DX009 (ip), vehicle: carboxymethylcellulose (CMC)): 96 % of control | T/C [1]: 102 % of control | T/C (dose: 25.0 mg/kg/injection, schedule: Q01DX009 (ip), vehicle: saline): 98 % of control | T/C (dose: 25.0 mg/kg/injection, schedule: Q01DX Z (ip), vehicle: methylcellulose (MC)): 101 % of control | T/C (dose: 40.0 mg/kg/injection, schedule: Q01DX001 (ip), vehicle: carboxymethylcellulose (CMC)): 104 % of control | T/C (dose: 40.0 mg/kg/injection, schedule: Q01DX009 (ip), vehicle: carboxymethylcellulose (CMC)): 108 % of control | T/C [2]: 95 % of control and 92 % of control | T/C (dose: 50.0 mg/kg/injection, schedule: Q01DX009 (ip), vehicle: saline): 99 % of control | T/C (dose: 50.0 mg/kg/injection, schedule: Q01DX Z (ip), vehicle: carboxymethylcellulose (CMC)): 155 % of control | T/C (dose: 50.0 mg/kg/injection, schedule: Q01DX Z (ip), vehicle: methylcellulose (MC)): 121 % of control | T/C (dose: 80.0 mg/kg/injection, schedule: Q01DX001 (ip), vehicle: carboxymethylcellulose (CMC)): 101 % of control | T/C (dose: 80.0 mg/kg/injection, schedule: Q01DX009 (ip), vehicle: carboxymethylcellulose (CMC)): 96 % of control | T/C [3]: 107 % of control and 92 % of control | T/C (dose: 100.0 mg/kg/injection, schedule: Q01DX009 (ip), vehicle: saline): 103 % of control | T/C (dose: 100.0 mg/kg/injection, schedule: Q01DX Z (ip), vehicle: methylcellulose (MC)): 100 % of control | T/C [4]: 95 % of control | T/C (dose: 150.0 mg/kg/injection, schedule: Q01DX009 (ip), vehicle: saline): 90 % of control | T/C [5]: 97 % of control | T/C [6]: 97 % of control | T/C (dose: 300.0 mg/kg/injection, schedule: Q01DX009 (ip), vehicle: saline): 101 % of control | T/C [7]: 103 % of control | T/C (dose: 800.0 mg/kg/injection, schedule: Q04DX003 (ip), vehicle: saline with Tween-80): 97 % of control

CCOC(=O)c1ccc(NC(=O)Nc2ccccc2Cl)cc1
T/C [3]: 93 % of control | T/C [4]: 91 % of control | T/C [5]: 87 % of control | T/C [6]: 93 % of control | T/C [8]: 92 % of control | T/C [7]: 94 % of control

NC(=S)N/N=C/c1ccc(Cl)cn1
T/C (dose: 7.33 mg/kg/injection, schedule: Q04DX003 (ip), vehicle: saline with Tween-80): 97 % of control | T/C (dose: 11.0 mg/kg/injection, schedule: Q01DX001 (ip), vehicle: saline with Tween-80): 95 % of control | T/C (dose: 11.0 mg/kg/injection, schedule: Q04DX003 (ip), vehicle: saline with Tween-80): 104 % of control | T/C (dose: 16.5 mg/kg/injection, schedule: Q01DX001 (ip), vehicle: saline with Tween-80): 105 % of control | T/C (dose: 16.5 mg/kg/injection, schedule: Q04DX003 (ip), vehicle: saline with Tween-80): 116 % of control | T/C (dose: 25.0 mg/kg/injection, schedule: Q01DX001 (ip), vehicle: saline with Tween-80): 111 % of control | T/C (dose: 25.0 mg/kg/injection, schedule: Q04DX003 (ip), vehicle: saline with Tween-80): 121 % of control

O=c1oc2ccccc2c2c1C(c1ccc3c(c1)OCO3)C=C(c1ccc3c(c1)OCO3)O2 (centres undefined)
T/C (dose: 25.0 mg/kg/injection, schedule: Q01DX009 (ip), vehicle: water): 101 % of control | T/C (dose: 50.0 mg/kg/injection, schedule: Q01DX009 (ip), vehicle: water): 100 % of control | T/C (dose: 100.0 mg/kg/injection, schedule: Q01DX009 (ip), vehicle: water): 97 % of control | T/C (dose: 200.0 mg/kg/injection, schedule: Q01DX009 (ip), vehicle: water): 95 % of control | T/C (dose: 400.0 mg/kg/injection, schedule: Q01DX009 (ip), vehicle: water): 102 % of control

Cc1cnc2c(=N)n(C(=O)C(F)(F)F)n(C)c2n1
T/C [9]: 104 % of control | T/C (dose: 100.0 mg/kg/injection, schedule: Q04DX003 (ip), vehicle: saline): 94 % of control | T/C [10]: 102 % of control | T/C (dose: 200.0 mg/kg/injection, schedule: Q04DX003 (ip), vehicle: saline): 110 % of control | T/C (dose: 400.0 mg/kg/injection, schedule: Q04DX003 (ip), vehicle: saline): 95 % of control

CC12C(=O)c3ccccc3C(=O)C1C1CCCCC1=C1CCCCC12 (centres undefined)
T/C (dose: 100.0 mg/kg/injection, schedule: Q04DX002 (ip), vehicle: Klucel (hydroxypropylcellulose) (HPC)): 93 % of control | T/C (dose: 200.0 mg/kg/injection, schedule: Q04DX002 (ip), vehicle: Klucel (hydroxypropylcellulose) (HPC)): 93 % of control | T/C (dose: 400.0 mg/kg/injection, schedule: Q04DX002 (ip), vehicle: Klucel (hydroxypropylcellulose) (HPC)): 101 % of control

O=C(O)CCCc1ccc2ccccc2n1
T/C (dose: 50.0 mg/kg/injection, schedule: Q01DX001 (ip), vehicle: alkali diluted with saline): 101 % of control | T/C (dose: 100.0 mg/kg/injection, schedule: Q01DX001 (ip), vehicle: alkali diluted with saline): 103 % of control | T/C (dose: 200.0 mg/kg/injection, schedule: Q01DX001 (ip), vehicle: alkali diluted with saline): 97 % of control | T/C (dose: 400.0 mg/kg/injection, schedule: Q01DX001 (ip), vehicle: alkali diluted with saline): 103 % of control

CC(=O)NCC(=O)O
T/C (dose: 100.0 mg/kg/injection, schedule: Q01DX001 (ip), vehicle: Klucel (hydroxypropylcellulose) (HPC)): 113 % of control | T/C (dose: 200.0 mg/kg/injection, schedule: Q01DX001 (ip), vehicle: Klucel (hydroxypropylcellulose) (HPC)): 95 % of control | T/C (dose: 300.0 mg/kg/injection, schedule: Q01DX001 (ip), vehicle: Klucel (hydroxypropylcellulose) (HPC)): 94 % of control

O=c1ccc2nc3cc(Cl)ccc3sc-2c1
T/C [9]: 95 % of control | T/C [10]: 96 % of control | T/C (dose: 400.0 mg/kg/injection, schedule: Q01DX009 (ip), vehicle: Klucel (hydroxypropylcellulose) (HPC)): 87 % of control

N#Cc1ccc(O)c(N)c1
T/C [11]: 95 % of control | T/C [12]: 90 % of control | T/C [13]: 90 % of control

Nc1ccc(CCCCc2ccccc2)cc1
T/C [1]: 96 % of control | T/C [2]: 89 % of control

CCCc1c(O)ccc(C)c1C
T/C (dose: 100.0 mg/kg/injection, schedule: Q01DX001 (ip), vehicle: other): 91 % of control | T/C (dose: 200.0 mg/kg/injection, schedule: Q01DX001 (ip), vehicle: other): 103 % of control

COC(=O)/C=C(\C)Nc1ccc(C(C)=O)cc1
T/C (dose: 100.0 mg/kg/injection, schedule: Q04DX003 (ip), vehicle: acetone): 96 % of control | T/C (dose: 200.0 mg/kg/injection, schedule: Q04DX003 (ip), vehicle: acetone): 94 % of control | T/C (dose: 400.0 mg/kg/injection, schedule: Q04DX003 (ip), vehicle: acetone): 94 % of control

CC(C)C(=O)OCP(=O)(COC(=O)C(C)C)COC(=O)C(C)C
T/C [4]: 92 % of control | T/C [6]: 97 % of control | T/C [7]: 93 % of control

O=C1NC(=O)c2ncccc21
T/C [3]: 90 % of control | T/C [4]: 87 % of control | T/C [5]: 95 % of control | T/C [6]: 103 % of control | T/C [8]: 97 % of control | T/C [7]: 100 % of control

CCOc1ncc([N+](=O)[O-])c(OCC)n1
T/C (dose: 50.0 mg/kg/injection, schedule: Q01DX001 (ip), vehicle: saline): 103 % of control | T/C [11]: 106 % of control | T/C [12]: 103 % of control | T/C [13]: 100 % of control

C=CCc1cc(Cl)ccc1OCC(=O)O
T/C (dose: 100.0 mg/kg/injection, schedule: Q01DX009 (ip), vehicle: gum acacia): 97 % of control | T/C (dose: 200.0 mg/kg/injection, schedule: Q01DX009 (ip), vehicle: gum acacia): 96 % of control
